Measurements taken from patent publication EP4671240A1, “SALT CONTAINING AROMATIC RING DERIVATIVE ANTAGONIST, PREPARATION METHOD THEREFOR, AND APPLICATION THEREOF” (Jiangsu Hansoh Pharmaceutical Group Co., Ltd., priority 2023, dated 2024).
Where a name gives a salt, the structure may show the parent alone.

Legend:
[1] = Hygroscopicity experiment (dynamic vapor sorption); format: physicochemical
From the text: To investigate the hygroscopicity of crystal form B of the hydrochloride salt of the compound 4'-((2-butyl-4-oxo-1,3-diazaspiro[4.4]non-1-en-3-yl)methyl-d2)-N-(4-chloro-5-methylisoxazol-3-yl)-2'-(ethoxymethyl)-[1,1'-biphenyl]-2-sulfonamide under different relative humidity conditions, thereby providing a basis for compound crystal form screening and storage.
Crystal form B of the hydrochloride salt of the compound 4'-((2-butyl-4-oxo-1,3-diazaspiro[4.4]non-1-en-3-yl)methyl-d2)-N-(4-chloro-5-methylisoxazol-3-yl)-2'-(ethoxymethyl)-[1,1'-biphenyl]-2-sulfonamide was placed in saturated water vapor with different relative humidity to allow the compound and the water vapor to reach dynamic equilibrium, and the percentage of hygroscopic weight gain of the compound after equilibrium was calculated.

[2] = Solid stability experiment of crystal forms of salts; format: physicochemical; settings: for XRPD: after treatment under light, high humidity, high temperature and 50°C/RH75%
From the text: To investigate the physical and chemical stability of crystal forms of the compound under high temperature, high humidity, high temperature and high humidity, and light conditions, thereby providing a basis for crystal form screening and storage.
4.1.3.1 Appropriate amounts of crystal form B of the hydrochloride salt, crystal form A of the methanesulfonic acid salt, crystal form A of the sulphuric acid salt, and crystal form A of the hydrobromic acid salt of the compound 4'-((2-butyl-4-oxo-1,3-diazaspiro[4.4]non-1-en-3-yl)methyl-d2)-N-(4-chloro-5-methylisoxazol-3-yl)-2'-(ethoxymethyl)-[1,1'-biphenyl]-2-sulfonamide were weighed and treated under light (5000±500lux), high humidity (25°C, 92.5%), high temperature (60°C), and 50°C±2°C/RH75%±5% for a certain period of time, and then their XRPD, purity and impurity content data were measured.
The maximum individual impurity increase for crystal form B of hydrochloride salt, crystal form A of methanesulfonic acid salt and crystal form A of sulphuric acid salt was determined by comparing Day 20 with Day 0, whereas for crystal form A of hydrobromic acid salt, it was determined by comparing Day 10 with Day 0.

[3] = Liver microsomal metabolism stability assay (human); format: in vitro ADME; settings: human liver microsomes, 60 min, compound 1 µM
Experimental: (§1) The objective of this experiment was to detect the stability of the example compounds in liver microsomes of rats, dogs and humans.
(§2) Formulation of compound working solution: compound stock solution was added to phosphate buffer to a final concentration of 20 µM.
(§3) Dilution was performed with 100 mM phosphate buffer to a final concentration of 0.625 mg/mL.
(§4) NADPH (reduced nicotinamide adenine dinucleotide phosphate) and UDPGA (uridine diphosphate glucuronic acid) were weighed, and 100 mM phosphate buffer was added to a final concentration of 20 mM.
(§5) 1 mg of Alamethicin was weighed, and 200 µL of DMSO was added to formulate a 5 mg/mL solution. Then dilution was performed with phosphate buffer to a final concentration of 50 µg/mL.
(§6) Stop solution: cold acetonitrile containing 100 ng/mL labetalol hydrochloride and 400 ng/mL tolbutamide as internal standards.
(§7) 400 µL of formulated liver microsomes, 25 µL of compound working solution and 25 µL of Alamethicin were added in sequence to a 96-well plate, and the mixture was pre-incubated at 37°C for 10 min. Then 50 µL of formulated NADPH/UDPGA was added to start the reaction and the mixture was incubated at 37°C. The total volume of the reaction system was 500 µL. The final contents of each component are as follows:
(§8) • Instrument: Shimadzu LC-30 AD; • Chromatographic column: XBridge® C18 (50*4.6 mm, 5 µm particle size); • Mobile phase: A: 0.1% formic acid solution, B: methanol • Elution gradient: 0.2-1.6 min 5% A to 95% A, 3.0-3.1 min 95% A to 5% A • Run time: 4.0 min.
(§9) • Instrument: API5500 liquid chromatography-mass spectrometer, AB Sciex; • Ion source: electrospray ionization source (ESI); • Drying gas: N2, temperature 500°C; • Electrospray voltage: 5000 V; • Detection mode: positive ion detection; • Scan mode: Multiple Reaction Monitoring (MRM) mode.

[4] = Liver microsomal metabolism stability assay (rat); format: in vitro ADME; settings: rat liver microsomes, 60 min, compound 1 µM
Experimental: as §1, §2, §3, §4, §5, §6, §7, §8, §9

[5] = Liver microsomal metabolism stability assay (dog); format: in vitro ADME; settings: dog liver microsomes, 60 min, compound 1 µM
Experimental: as §1, §2, §3, §4, §5, §6, §7, §8, §9

[6] = 50°C&75%RH, Day 20 compared with Day 0
[7] = high humidity 25°C, 92.5% RH, Day 20 compared with Day 0
[8] = high temperature 60°C, Day 20 compared with Day 0
[9] = light 5000±500lux, Day 20 compared with Day 0

SMILES | hygroscopic weight gain ([1]; RH80%, 25°C, DVS) [%] | XRPD pattern after moisture absorption and desorption ([1]; after 2 cycles under 0-95% relative humidity) | Maximum individual impurity increase [2, 6] [%] | XRPD [2] | Maximum individual impurity increase [2, 7] [%] | Maximum individual impurity increase [2, 8] [%] | Maximum individual impurity increase [2, 9] [%] | Human Remaining rate [3] [%] | Rat Remaining rate [4] [%] | Dog Remaining rate [5] [%] | Maximum individual impurity increase ([2]; 50°C&75%RH, Day 10 compared with Day 0) [%] | Maximum individual impurity increase ([2]; high humidity 25°C, 92.5% RH, Day 10 compared with Day 0) [%] | Maximum individual impurity increase ([2]; high temperature 60°C, Day 10 compared with Day 0) [%]
[2H]C([2H])(c1ccc(-c2ccccc2S(=O)(=O)Nc2noc(C)c2Cl)c(COCC)c1)N1C(=O)C2(CCCC2)N=C1CCCC [Crystal form B of hydrochloride salt, 4'-((2-butyl-4-oxo-1,3-diazaspiro[4.4]non-1-en-3-yl)methyl-d2)-N-(4-chloro-5-methylisoxazol-3-yl)-2'-(ethoxymethyl)-[1,1'-biphenyl]-2-sulfonamide] | 0.378 | no change | <0.01 | Crystal form unchanged | <0.01 | 0.02 | 0.04 |  |  |  |  |  | 
[2H]C([2H])(c1ccc(-c2ccccc2S(=O)(=O)Nc2noc(C)c2Cl)c(COCC)c1)N1C(=O)C2(CCCC2)N=C1CCCC [Crystal form A of sulphuric acid salt, 4'-((2-butyl-4-oxo-1,3-diazaspiro[4.4]non-1-en-3-yl)methyl-d2)-N-(4-chloro-5-methylisoxazol-3-yl)-2'-(ethoxymethyl)-[1,1'-biphenyl]-2-sulfonamide] |  |  | 0.14 | Crystal form unchanged | 0.05 | 0.11 | 0.06 |  |  |  |  |  | 
[2H]C([2H])(c1ccc(-c2ccccc2S(=O)(=O)Nc2noc(C)c2Cl)c(COCC)c1)N1C(=O)C2(CCCC2)N=C1CCCC [Crystal form A of methanesulfonic acid salt] [4'-((2-butyl-4-oxo-1,3-diazaspiro[4.4]non-1-en-3-yl)methyl-d2)-N-(4-chloro-5-methylisoxazol-3-yl)-2'-(ethoxymethyl)-[1,1'-biphenyl]-2-sulfonamide] |  |  | 0.08 | Crystal form unchanged | <0.01 | 0.05 | 0.09 |  |  |  |  |  | 
[2H]C([2H])(OCC)c1cc(CN2C(=O)C3(CCCC3)N=C2CCCC)ccc1-c1ccccc1S(=O)(=O)Nc1noc(C)c1Cl [Example 4, 4'-((2-Butyl-4-oxo-1,3-diazospiro[4.4]non-1-en-3-yl)methyl)-N-(4-chloro-5-methylisoxazol-3-yl)-2'-(ethoxydeuteromethyl)-[1,1'-biphenyl]-2-sulfonamide] |  |  |  |  |  |  |  | 30.7 | 17.1 | 23.9 |  |  | 
[2H]C([2H])(c1ccc(-c2ccccc2S(=O)(=O)Nc2noc(C)c2Cl)c(COCC)c1)N1C(=O)C2(CCCC2)N=C1CCCC [Crystal form A of hydrobromic acid salt, 4'-((2-butyl-4-oxo-1,3-diazaspiro[4.4]non-1-en-3-yl)methyl-d2)-N-(4-chloro-5-methylisoxazol-3-yl)-2'-(ethoxymethyl)-[1,1'-biphenyl]-2-sulfonamide] |  |  |  | Crystal form unchanged |  |  |  |  |  |  | 0.02 | 0.02 | 0.05
